# Assays:
# MCF-7 cells [1] = test: Annexin V-FITC/PI apoptosis assay (flow cytometry); assay type: cell-based, human; details: 48 h
# Protocol: Among the cell death pathways, apoptosis is very important to maintain cellular homeostasis. However, upon severe and irreparable cellular stress, all cells, including cancer cells, undergo apoptosis. In this work, the Annexin V–FITC/PI double-staining method was used in assessing the development of apoptosis when MCF-7 cells are exposed to compound 33 (0.1 and 0.5 μM for 48 h). MCF-7 cells were first treated with compound 33 for 48 h followed by staining with Annexin V–fluorescein isothiocyanate (FITC)/propidium iodide (PI). Live cells (Annexin V^−/PI^−), early apoptotic cells (Annexin V^+/PI^−), late apoptotic cells (Annexin V+/PI+) and necrotic cells (Annexin V^−/PI^+) can be differentiated by tie technique following flow cytometric analysis (Figure 5). The positive control CA-4 (at 50 nM concentration) induced 34.6% Annexin V-positive apoptotic cells, and the vehicle control used was 0.1% ethanol (v/v).
# Apoptotic cell death was monitored by flow cytometry using Annexin V and propidium iodide (PI) as previously described by us. MCF-7 cells were seeded in 6-well plates at a density of 1 × 10^5 cells/mL and treated with either vehicle (0.1% (v/v) EtOH) or β-lactam compound 33 at concentrations 0.1 and 0.5 µM for 48 h. Cells were harvested and prepared for flow cytometric analysis. Cells were washed in 1X binding buffer (20X binding buffer: 0.1 M HEPES, pH 7.4; 1.4 M NaCl; 25 mM CaCl2 diluted in dH2O) and incubated in the dark for 30 min on ice in Annexin V-containing binding buffer [1:100]. Cells were then washed in binding buffer and then re-suspended in PI-containing binding buffer (1:1000). Samples were then analysed with the BD Accuri flow cytometer and Prism software. The resulting cell populations were identified as Annexin V- and PI-negative (Q4, healthy cells), Annexin V-positive and PI-negative (Q3, early apoptosis), Annexin V- and PI-positive (Q2, late apoptosis) and Annexin V-negative and PI-positive (Q1, necrosis). The positive control for induction of cell death was […].
# Figure 5 Compound 33 induces apoptosis in MCF-7 breast cancer cells. […] .
# SW-480 cells = test: AlamarBlue cell viability assay; assay type: cell-based
# Protocol: Compound # (Treatment Concentration µM) […]
# different para-substituent ring B 26-29; 3-fluoro β-lactam compounds containing different meta-substituent ring B 30, 33-35; (B) 3,3-difluoro β-lactam compounds containing different para-substituent ring B 36-39; 3,3-difluoro β-lactam compounds containing different meta-substituent […]
# ring B 40, 42-45 in SW-480 cancer cells.
# Cell proliferation of MCF-7 cells was determined with an alamarBlue assay (seeding density […]
# Compound concentrations of either 10 μM or 1 μM for 72 h were used to treat the cells with control wells containing vehicle ethanol (1%
# MCF-7 cells [2] = test: Immunofluorescence confocal microscopy of the microtubule network; assay type: cell-based, human; details: MCF-7, 16 h; 33 0.1, 0.5 and 1.0 μM; paclitaxel 1.0 μM; CA-4 0.01 μM
# Protocol: The tubulin-targeting effect of compound 33 on the microtubule network of MCF-7 cells was further evaluated by immunofluorescence studies to identify the cellular effects that are relevant to its mechanism of action by inhibiting the polymerisation of tubulin. […] Treatment of MCF-7 cells with compound 33 (0.1, 0.5 and 1.0 μM) induced cell rounding and distinct abnormalities of the spindle formation as well as a loss of the structured tubulin that impacts the microtubule network structure in a dose-dependent manner.
# Confocal microscopy was used to determine the effects of novel compound 33 and standard drugs on the MCF-7 cytoskeleton according to the protocols we previously described. For the immunofluorescence study, MCF-7 cells were seeded at 1 × 10^5 cells/mL using eight chamber glass slides (BD Biosciences). The cells were treated with vehicle control (1% ethanol (v/v)), CA-4 (0.01 μM), paclitaxel (1 µM) and 33 (0.1 µM, 0.5 µM and 1 µM) for 16 h. The cells were gently washed in PBS, fixed with 4% paraformaldehyde in PBS (20 min) and permeabilised in 0.5% Triton X-100. After further washes in PBS (containing 0.1% Tween (PBST)), cells were blocked with 5% bovine serum albumin which was diluted with PBST. Cells were incubated with mouse monoclonal anti-α-tubulin–FITC antibody (clone DM1A) (Sigma) (1:100) at 20 °C for 2 h and then washed in PBST and incubated with Alexa Fluor 488 dye (1:500) for 1 h at 20 °C. Cells were washed in PBST and mounted in Ultra Cruz Mounting Media (Santa Cruz Biotechnology, Santa Cruz, CA, USA) containing 4,6-diamino-2-phenolindol dihydrochloride (DAPI). The images were captured by Leica SP8 confocal microscopy with Leica Application Suite X software. Experiments were performed on three independent occasions and images were collected on the same day using identical parameters.
# Figure 8 Compound 33 acts as depolymeriser of the microtubule network of MCF-7 breast cancer cells. Cells were treated with vehicle control ([…]), CA-4 (0.01 μM), paclitaxel (1 μM) or compound 33 (0.1, 0.5 and 1 μM) for 16 h. […]
# UACC-62 = test: NCI 60 cell line screen, Melanoma; assay type: cell-based, human; details: for inhibition at 10 µM: Homo sapiens; for inhibition at 10 µM / Growth %: one dose 10 µM
# MCF7 = test: NCI 60 cell line screen, Breast; assay type: cell-based, human; details: for inhibition at 10 µM: MCF7, MCF7; for inhibition at 10 µM / Growth % / Inhibition %: one dose 10 µM
# A549/A TCC = test: NCI 60 cell line screen, NSCLung; assay type: cell-based, human; details: for inhibition at 10 µM / Growth %: one dose 10 µM
# OVCAR-8 = test: NCI 60 cell line screen, Ovarian; assay type: cell-based, human; details: for inhibition at 10 µM / Growth %: one dose 10 µM
Structure (SMILES),effect on the microtubule network (MCF-7 cells [2]),inhibition at 10 µM (UACC-62) [%],Growth % (UACC-62) [%],inhibition at 10 µM (MCF7; Homo sapiens) [%],Growth % (MCF7; MCF7) [%],Inhibition % (MCF7; MCF7) [%],inhibition at 10 µM (A549/A TCC; Homo sapiens) [%],Growth % (A549/A TCC) [%],inhibition at 10 µM (OVCAR-8; Homo sapiens) [%],Growth % (OVCAR-8) [%],also measured
"COc1ccc(/C=C\c2cc(OC)c(OC)c(OC)c2)cc1O [CA-4, combretastatin A-4, reference compound]",depolymerisation and destabilisation,,,,,,,,,,"viability at 0.05 µM (MCF-7 cells [1]; Homo sapiens, MCF7, MCF-7, 50 nM, read-out: Viable cells): 61.8%; Annexin V-positive apoptotic cells (MCF-7 cells [1]; MCF-7, 50 nM): 34.6%; IC50 (SW-480 cells; Homo sapiens, SW480 cells): 6.3 ± 0.6 nM"
"COc1ccc(C2C(F)C(=O)N2c2cc(OC)c(OC)c(OC)c2)cc1F (stereo not drawn) [Compound 33, 3-Fluoro-4-(3-fluoro-4-methoxyphenyl)-1-(3,4,5-trimethoxyphenyl)azetidin-2-one]",destabilising microtubules,46.5,53.45,87.2,12.83,87.2,84.7,15.33,86.3,13.71,"TGI (UACC-62; 5-dose, 48 h): >100000 nM; GI50 (MCF7; Homo sapiens, MCF7, 5-dose, 48 h): 36.4 nM; TGI (MCF7; MCF7, 5-dose, 48 h): >100000 nM; viability at 0.1 µM (MCF-7 cells [1]; Homo sapiens, MCF7, MCF-7, 0.1 μM, read-out: Viable cells): 84.9%; viability at 0.5 µM (MCF-7 cells [1]; Homo sapiens, MCF7, MCF-7, 0.5 μM, read-out: Viable cells): 48.8%; apoptosis (early + late) (MCF-7 cells [1]; MCF-7, 0.1 μM): 14.2%; early apoptotic cells (MCF-7 cells [1]; MCF-7, 0.1 μM): 8.1%; late apoptotic cells (MCF-7 cells [1]; MCF-7, 0.1 μM): 6.1%; apoptosis (early + late) (MCF-7 cells [1]; MCF-7, 0.5 μM): 45.9%; early apoptotic cells (MCF-7 cells [1]; MCF-7, 0.5 μM): 22.1%; late apoptotic cells (MCF-7 cells [1]; MCF-7, 0.5 μM): 23.8%; TGI (A549/A TCC; 5-dose, 48 h): >100000 nM; GI50 (A549/A TCC; Homo sapiens, 5-dose, 48 h): 394 nM; cells remaining (SW-480 cells; SW-480, 10 μM, 72 h): 62%; TGI (OVCAR-8; 5-dose, 48 h): >100000 nM; GI50 (OVCAR-8; Homo sapiens, 5-dose, 48 h): 368 nM"
"CCOc1ccc(C2N(c3cc(OC)c(OC)c(OC)c3)C(=O)C2(F)F)cc1 (stereo not drawn) [Compound 37, 4-(4-Ethoxyphenyl)-3,3-difluoro-1-(3,4,5-trimethoxyphenyl)azetidin-2-one]",,48.4,51.61,82.8,17.19,82.8,66.4,33.56,56.8,43.23,
"COc1ccc(C2N(c3cc(OC)c(OC)c(OC)c3)C(=O)C2(F)F)cc1F (stereo not drawn) [Compound 43, 3,3-Difluoro-4-(3-fluoro-4-methoxyphenyl)-1-(3,4,5-trimethoxyphenyl)azetidin-2-one]",,44.5,55.46,84.9,15.06,84.9,51.4,48.65,55.9,44.07,

# Source: paper PMC9501633, “Synthesis, Characterisation and Mechanism of Action of Anticancer 3-Fluoroazetidin-2-ones” (Pharmaceuticals, 2022)
